Key:
5-HT3 receptor = molecular target: T1, 5-HT3 receptor (Rattus norvegicus, UniProt P35563); assay: 5-HT3 antagonistic activity: antagonism of Bezold-Jarisch reflex (reflective bradycardia) induced by 5-HT; assay type: in vivo, S.D. male rats; settings: for Duration time of 5-HT3 antagonistic activity: i.v., time until inhibitory rate of reflective bradycardia became 20% or less; for ED50: rat, iv, read-out: ED50 [95% Confidence limits], antagonistic activity against Bezold-Jarisch reflex
T1 construct: S.D. male rats (weighing 200 to 350 g) were anesthetized; from tissue; host or cells: whole anesthetized S.D. male rats (in vivo; endogenous receptor)
T1 sequence (P35563 24-483): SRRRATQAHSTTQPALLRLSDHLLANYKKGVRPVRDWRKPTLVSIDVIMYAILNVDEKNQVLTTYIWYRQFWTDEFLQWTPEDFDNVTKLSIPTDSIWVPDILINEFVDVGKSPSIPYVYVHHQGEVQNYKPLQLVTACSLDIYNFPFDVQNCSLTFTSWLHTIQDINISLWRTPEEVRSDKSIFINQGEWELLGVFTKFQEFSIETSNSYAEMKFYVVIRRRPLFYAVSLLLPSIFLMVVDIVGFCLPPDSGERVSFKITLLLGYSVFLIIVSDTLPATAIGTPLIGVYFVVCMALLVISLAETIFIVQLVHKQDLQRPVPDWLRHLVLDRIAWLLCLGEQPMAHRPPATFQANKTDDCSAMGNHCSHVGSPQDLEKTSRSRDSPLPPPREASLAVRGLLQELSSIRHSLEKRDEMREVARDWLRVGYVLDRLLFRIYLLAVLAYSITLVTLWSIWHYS
Protocol: 5-HT3 antagonistic activity:
The 5-HT3 antagonistic activity was measured in accordance with the method by Collins et al. [Br. J. Pharmacol., 80, 570P (1983)] using as an index the inhibitory activity against reflective bradycardia [Bezold-Jarisch reflex] induced by 5-HT.
That is, S.D. male rats (weighing 200 to 350 g) were anesthetized by intraperitoneal administration of urethane ([…]) and introduced with cannula into the carotid and the pulse frequency was measured. 5-HT was dissolved in physiological saline and intravenously administered (0.04 mg/kg). The test compounds were dissolved in physiological saline or physiological saline containing 5% ethanol and intravenously administered five minutes before the administration of 5-HT.
ED50 values were obtained from a dose-response curve of inhibitory rate of reflective bradycardia by the test compounds and the 5-HT3 antagonistic activity was compared.
In addition, the test compounds (about 25 times amount of the above ED50 value) and 5-HT were intravenously administered in the same manner as mentioned above and thereafter 5-HT (0.04 mg/kg) was intravenously administered with the passage of time.

[1] = test system: cisplatin-induced vomiting; assay: Preventive and therapeutic effects against vomiting induced by cisplatin; assay type: in vivo, male ferrets; settings: i.v.; for Inhibitory rate, preventive effect: 5 minutes before cisplatin (10 mg/kg), vomiting counted for 4 hours; for Inhibitory rate, therapeutic effect: after appearance of vomiting (about 80 minutes after cisplatin 10 mg/kg), counted for 4 hours
Protocol: Preventive and therapeutic effects against vomiting induced by cisplatin:
The experiment was conducted in accordance with the method by Costall et al. [Neuropharmacology, 26, 1321-1326 (1987)].
That is, male ferrets (weighing 1.0 to 1.6 kg, three animals in each group) underwent an implant operation of cannula at the jugular vein for intravenous administration. For evaluating the preventive effects, the test compounds dissolved in a physiological saline or in a physiological saline containing 5% ethanol or a physiological saline (control) were intravenously administered to the ferrets three days after the operation, then after 5 minutes, cisplatin (10 mg/kg) dissolved in a physiological saline was intravenously administered to the ferrets over 30 seconds, and a number of vomiting caused between just after the administration of cisplatin and 4 hours after the administration was measured. As to the therapeutic effects, cisplatin (10 mg/kg) dissolved in a physiological saline was intravenously administered to the ferrets three days after the operation over 30 seconds. After appearance of vomiting (about 80 minutes after the administration of cisplatin), the test compounds dissolved in a physiological saline or in a physiological saline containing 5% ethanol or a physiological saline (control) were intravenously administered to the ferrets and then a number of vomiting occurred during 4 hours thereafter was counted. The inhibitory rate was calculated by the following formula: Inhibitory rate (%)={1-(mean number of vomiting in the group administered with the test compound/mean number of vomiting in the control group)}×100

[2] = test system: vomiting caused by the administration of the chemotherapeutics such as cisplatin; settings: Cancer. Chemother. Pharmacol., 23, 389-391 (1989); cited from earlier work
ddY Male mice = assay: Acute toxicity; assay type: in vivo; settings: 100 mg/kg intravenously; observed for 7 days; five mice per group
Description: The same as in Experiment 2

| Duration time of 5-HT3 antagonistic activity (5-HT3 receptor; dose 1.0 μg/kg) | SMILES | Inhibitory rate, preventive effect ([1]; 0.01 mg/kg) | Inhibitory rate, therapeutic effect ([1]; 0.01 mg/kg) | 5-HT3 antagonistic activity compared to the compound of the present invention (5-HT3 receptor; in words, reason why duration was not measured) | ED50 (5-HT3 receptor) | Inhibition of vomiting caused by chemotherapeutics such as cisplatin [2] | Duration time of 5-HT3 antagonistic activity (5-HT3 receptor; dose 100 μg/kg) | Inhibitory rate, preventive effect ([1]; 0.1 mg/kg) | Inhibitory rate, therapeutic effect ([1]; 0.1 mg/kg) | Death of animals (ddY Male mice) |
| --- | --- | --- | --- | --- | --- | --- | --- | --- | --- | --- |
| > 8 h | CC(C)n1c(N2CCN(C)CC2)nc2cc(Cl)c(N)cc21 [Compound 1, 6-Amino-5-chloro-1-isopropyl-2-(4-methyl-1-piperazinyl)benzimidazole] | 100% | 100% |  |  |  |  |  |  |  |
| > 8 h | CC(C)n1c(N2CCN(C)CC2)nc2cc(Cl)c(N)cc21.O=C(O)/C=C\C(=O)O.O=C(O)/C=C\C(=O)O [Compound 2, 6-Amino-5-chloro-1-isopropyl-2-(4-methyl-1-piperazinyl)benzimidazole dimaleate] | 85% | 100% |  |  |  |  |  |  |  |
|  | CN1CCN(c2nc3ccccc3n2C)CC1 [Compound A, 1-Methyl-2-(4-methyl-1-piperazinyl)benzimidazole] |  |  | quite low as compared to the compound of the present invention | > 3 µg/kg |  |  |  |  |  |
|  | Cc1nccn1CC1CCc2c(c3ccccc3n2C)C1=O (centres unmarked) [Reference compound, Ondansetron] |  |  |  | 4 µg/kg | effective | 2 h | 31% | 77% | all animals were dead |

From patent US5407936A, “Benzimidazole derivative, process for preparing the same, antiemetic agent containing the same as active ingredient and intermediate compound for preparing the same” (priority 1991, dated 1995)
